The text below walks through data of PMC4850295, “Using a Genetically Encoded Sensor to Identify Inhibitors of Toxoplasma gondii Ca^2+ Signaling” (The Journal of Biological Chemistry, 2016).

The IC50 is the concentration needed to halve the response being measured.

Molecules are shown by their SMILES.

The first test deals with T1, GCaMP5-expressing T. gondii.
T1 construct: whole extracellular parasites expressing GCaMP5 Ca2+ sensor
Experiment: not given
On the set-up: species or system GCaMP5-expressing Toxoplasma gondii, extracellular; GCaMP5 fluorescence (cytosolic Ca2+) after 100 uM zaprinast in compound-pretreated extracellular parasites, background-subtracted, relative to zaprinast alone. As to conditions: 100 uM zaprinast stimulation; 10 min pretreatment; mean of two replicates; 0.23 h. Summed up:
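Extracellular GCaMP5-expressing parasites in Ringer's solution were pretreated with compounds (single 10 μM dose, two biological replicates) for 10 min, then stimulated with 100 μM zaprinast at 37 °C for 4 min. Fluorescence read at 485/525 nm, basal subtracted, expressed as fold change relative to zaprinast-only parasites.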
Consider `Fc1ccc(-c2nn3ncccc3c2-c2ccnc(Nc3ccc4c(c3)OCCO4)n2)cc1` [Inh1], for which the “fold change in fluorescence relative to zaprinast alone” value is on record as -0.1251.
Turning to `Nc1nc(-c2ccc3c(c2)C(=Cc2cc(Br)c(O)c(Br)c2)C(=O)N3)cs1` [Inh2], the “fold change in fluorescence relative to zaprinast alone” value was 0.1475.
On the same count and under the same terms, next, `Cc1ccc(-c2cc3c(NC(=O)C4CC4)ncnc3o2)cc1` [GW819230X]: 1.19.
Same read-out and setting: next, `COc1cccc(-c2ccc3c(NC(=O)C4CC4)n[nH]c3n2)c1` [SB-710903]: 1.151; `CN1CCN(Cc2cccc(-c3ccc4c(Nc5ccc(Oc6ccccc6)cc5)ccnc4c3)c2)CC1` [GW578342X]: 1.603.
As for `COc1cc(Nc2nccc(-c3c(-c4cccc(NC(=O)c5c(F)cccc5F)c4)nn4ccccc34)n2)cc(OC)c1OC` [GSK323521A], the “fold change in fluorescence relative to zaprinast alone” value came out at 1.412.
As to `COc1ccc2cc(-c3c(-c4ccncc4)nc(-c4ccc([S+](C)[O-])cc4C)n3C)ccc2c1` (stereo not shown) [SB-630812], the “fold change in fluorescence relative to zaprinast alone” value was 1.111.
With `COc1cc2nccc(Nc3ccc(OCc4ccc(NC(C)=O)cc4)cc3)c2cc1OC` [GW440135A], the “fold change in fluorescence relative to zaprinast alone” value is given as 1.118.
Same read-out and setting: next, `Fc1ccc(-c2ncn(C3CCNCC3)c2-c2ccnc(Oc3ccc(F)c(F)c3)n2)cc1` [SB-253228]: 1.173.
The same measure, in the same setting: next, `COc1cc2ncn(-c3cc(OCc4ccccc4C(F)(F)F)c(C(=O)N(C)C)s3)c2cc1OC` [GSK1030062A]: 0.999; `Cn1cnc2c(N)ncnc21` [SKF-97623]: 1.06.
In the case of `CN1CCN(C(=O)c2ccc(NC(=O)Nc3ccc(N(C)c4ccnc(Nc5ccc(CS(C)(=O)=O)cc5)n4)cc3)cc2)CC1` [GW830263A], the “fold change in fluorescence relative to zaprinast alone” value stood at 1.245.
Same read-out and setting: then `NS(=O)(=O)c1ccc(N/N=C2\C(=O)Nc3ccc(C(=O)NCCc4c[nH]cn4)cc32)cc1` [GW300660X], with 1.243.
On the same count and under the same terms, then `COc1ccc(-c2cc3c(N)ncnc3o2)cc1` [GW642138X], with 1.142; and `O=c1[nH]ccc2nc(N[C@@H]3CCCNC3)nc(Nc3ccc(S(=O)(=O)N4CCOCC4)cc3)c12` [GSK2177277A], with 1.049; and `CSc1ccc(-c2nc3n(c2-c2ccncc2)CCC3)cc1` [SKF-105561], with 0.9692.
Still for that read-out and setting: next, `COc1cccc(/C=N/Nc2ncnc3c2cnn3-c2cccc(OC)c2)c1` [GW829874X]: 1.214; `COc1ccc(Nc2nccc(N3CCC(NC(=O)Nc4cccc(OC)c4)C3)n2)cc1` (stereo not shown) [GSK1379742A]: 1.221.
Regarding `NS(=O)(=O)c1cccc(N=Cc2c(O)[nH]c3ccc(S(=O)(=O)Cc4c(Cl)cccc4Cl)cc23)c1` [GSK398099A], the “fold change in fluorescence relative to zaprinast alone” value is reported as 1.056.
For the compound `CCCCc1nn2ncccc2c1-c1ccnc(NC2CC2)n1` [GW684374X], the “fold change in fluorescence relative to zaprinast alone” value is given as 0.8894.
On the same count and under the same terms, then `Cc1ccc(NC(=O)c2ccnc(N3CCN(C)CC3)c2)cc1-c1ccc(C(=O)NCC2CC2)cc1` [GW775604X], with 1.197; and `CSc1ccc(NC2=C(c3ccccc3Cl)C(=O)NC2=O)cc1` [SB-342411], with 0.8828; and `O=C1Nc2ccc(C(=O)c3ccco3)cc2C1=Cc1cc(Cl)c(O)c(Cl)c1` [GW406108X], with 1.311.
On the same count and under the same terms, then `CNC(=O)c1cncc(/C=C/c2c(Cl)cccc2Cl)c1` [GW445014X], with 1.122.
Same read-out and setting: next, `OCc1ccc(-c2nc(-c3ccc4c(c3)OCO4)c(-c3ccccn3)[nH]2)cc1` [SB-431533]: 1.145.

For a further test, the target named is T2, recombinant T. gondii PKG (cGMP-dependent protein kinase; protein kinase G) (Toxoplasma gondii, UniProt Q8MMZ7). In words: in vitro kinase assay (CycLex PKG assay kit). The test is classed as biochemical.
T2 sequence (Q8MMZ7 whole entry): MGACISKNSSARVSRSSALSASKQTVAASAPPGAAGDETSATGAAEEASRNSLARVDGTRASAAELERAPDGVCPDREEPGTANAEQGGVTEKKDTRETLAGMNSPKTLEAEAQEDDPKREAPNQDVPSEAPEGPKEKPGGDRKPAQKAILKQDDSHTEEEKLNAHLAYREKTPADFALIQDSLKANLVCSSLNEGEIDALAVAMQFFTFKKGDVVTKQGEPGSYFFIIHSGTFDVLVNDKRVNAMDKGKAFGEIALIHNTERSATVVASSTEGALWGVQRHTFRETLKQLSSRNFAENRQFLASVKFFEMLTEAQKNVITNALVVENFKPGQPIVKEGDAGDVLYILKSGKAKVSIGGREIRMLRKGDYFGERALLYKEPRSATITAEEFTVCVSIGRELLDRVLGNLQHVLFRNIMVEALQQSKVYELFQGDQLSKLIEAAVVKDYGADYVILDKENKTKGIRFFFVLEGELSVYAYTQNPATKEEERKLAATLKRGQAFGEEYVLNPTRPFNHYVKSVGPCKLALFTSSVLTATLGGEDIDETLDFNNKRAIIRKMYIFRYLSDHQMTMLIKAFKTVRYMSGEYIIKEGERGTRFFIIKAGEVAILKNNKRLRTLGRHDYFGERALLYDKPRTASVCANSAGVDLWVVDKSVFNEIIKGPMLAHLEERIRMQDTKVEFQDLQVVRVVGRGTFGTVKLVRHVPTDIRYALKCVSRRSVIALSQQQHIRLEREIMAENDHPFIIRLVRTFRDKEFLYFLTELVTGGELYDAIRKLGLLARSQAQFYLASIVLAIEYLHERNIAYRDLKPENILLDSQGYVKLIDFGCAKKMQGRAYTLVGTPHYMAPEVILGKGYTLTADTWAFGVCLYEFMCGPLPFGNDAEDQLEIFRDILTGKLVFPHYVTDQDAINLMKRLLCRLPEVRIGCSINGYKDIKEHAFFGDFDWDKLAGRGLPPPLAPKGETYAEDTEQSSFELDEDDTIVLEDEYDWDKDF
Conditions: not given
On to `Fc1ccc(-c2nn3ncccc3c2-c2ccnc(Nc3ccc4c(c3)OCCO4)n2)cc1` [Inh1], for which the concentration for half-maximal inhibition (IC50) was 580 nM.
`Nc1nc(-c2ccc3c(c2)C(=Cc2cc(Br)c(O)c(Br)c2)C(=O)N3)cs1` [Inh2]: the IC50 is 670 nM.

The next test concerns the target T2, recombinant T. gondii PKG (cGMP-dependent protein kinase; protein kinase G). Nature of the test: in vitro kinase assay (CycLex PKG assay kit). The test is classed as biochemical. As to conditions: 6.76 nM recombinant PKG.
With `CN(C)Cc1ccn2c(-c3ccnc(N)n3)c(-c3ccc(F)cc3)nc2c1` [Cpd2, Compound 2], the “activity versus inhibitor concentration” value is reported as “presence of increasing concentrations of Inh1, Inh2, or the PKG inhibitor Cpd2”.
